# Experimental data taken from PubChem BioAssay AID1918938 (Molecular Pharmacology Branch, DTP, NCI, 2023).
# Test system: 556581-035-R-J1-PDC complex spheroid viability
# Test: Anticancer human tumor 556581-035-R-J1-PDC patient-derived ovarian carcinoma cell line growth inhibition
# Conditions: for IC50: curve of first compound; for viability, T/C: stronger effect = lower value
# Outline: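 Drug combinations with the LSD1 inhibitor iadademstat tested on tumor cells co-cultured as spheroids with endothelial cells and mesenchymal stem cells. Concentrations descended in half-log increments from clinical Cmax or 10 microM.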
# [1] = second compound 0.1 µM, first compound 0.00316 µM
# [2] = second compound 0.1 µM, first compound 0.01 µM
# [3] = second compound 0.1 µM, first compound 0.0316 µM
# [4] = second compound 0.1 µM, first compound 0.1 µM
# [5] = second compound 0.316 µM, first compound 0.00316 µM
# [6] = second compound 0.316 µM, first compound 0.01 µM
# [7] = second compound 0.316 µM, first compound 0.0316 µM
# [8] = second compound 0.316 µM, first compound 0.1 µM
# [9] = second compound 1 µM, first compound 0.00316 µM
# [10] = second compound 1 µM, first compound 0.01 µM
# [11] = second compound 1 µM, first compound 0.0316 µM
# [12] = second compound 1 µM, first compound 0.1 µM
# [13] = second compound 3.16 µM, first compound 0.00316 µM
# [14] = second compound 3.16 µM, first compound 0.01 µM
# [15] = second compound 3.16 µM, first compound 0.0316 µM
# [16] = second compound 3.16 µM, first compound 0.1 µM
# [17] = second compound 10 µM, first compound 0.00316 µM
# [18] = second compound 10 µM, first compound 0.01 µM
# [19] = second compound 10 µM, first compound 0.0316 µM
# [20] = second compound 10 µM, first compound 0.1 µM
# [21] = second compound 0.1 µM, first compound 0.00949 µM
# [22] = second compound 0.1 µM, first compound 0.03 µM
# [23] = second compound 0.1 µM, first compound 0.0949 µM
# [24] = second compound 0.1 µM, first compound 0.3 µM
# [25] = second compound 0.1 µM, first compound 0.949 µM
# [26] = second compound 0.1 µM, first compound 3 µM
# [27] = second compound 0.316 µM, first compound 0.00949 µM
# [28] = second compound 0.316 µM, first compound 0.03 µM
# [29] = second compound 0.316 µM, first compound 0.0949 µM
# [30] = second compound 0.316 µM, first compound 0.3 µM
# [31] = second compound 0.316 µM, first compound 0.949 µM
# [32] = second compound 0.316 µM, first compound 3 µM
# [33] = second compound 1 µM, first compound 0.00949 µM
# [34] = second compound 1 µM, first compound 0.03 µM
# [35] = second compound 1 µM, first compound 0.0949 µM
# [36] = second compound 1 µM, first compound 0.3 µM
# [37] = second compound 1 µM, first compound 0.949 µM
# [38] = second compound 1 µM, first compound 3 µM
# [39] = second compound 3.16 µM, first compound 0.00949 µM
# [40] = second compound 3.16 µM, first compound 0.03 µM
# [41] = second compound 3.16 µM, first compound 0.0949 µM
# [42] = second compound 3.16 µM, first compound 0.3 µM
# [43] = second compound 3.16 µM, first compound 0.949 µM
# [44] = second compound 3.16 µM, first compound 3 µM
# [45] = second compound 10 µM, first compound 0.00949 µM
# [46] = second compound 10 µM, first compound 0.03 µM
# [47] = second compound 10 µM, first compound 0.0949 µM
# [48] = second compound 10 µM, first compound 0.3 µM
# [49] = second compound 10 µM, first compound 0.949 µM
# [50] = second compound 10 µM, first compound 3 µM
# 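Also: spheroids exposed to agents for seven days.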
# 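For viability, T/C in this document: 100% = DMSO vehicle control wells.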
smiles,measurement,setting,value
COc1cc(Nc2ncc3c(n2)-c2ccc(Cl)cc2C(c2c(F)cccc2OC)=NC3)ccc1C(=O)O + NC1CCC(NC2CC2c2ccccc2)CC1,IC50,second compound 0.1 µM,360 nM
same,IC50,second compound 0.316 µM,307 nM
same,IC50,second compound 1 µM,253 nM
same,IC50,second compound 3.16 µM,213 nM
same,IC50,second compound 10 µM,143 nM
same,"viability, T/C",[1],67.5%
same,"viability, T/C",[2],59.8%
same,"viability, T/C",[3],58.4%
same,"viability, T/C",[4],56.1%
same,"viability, T/C","second compound 0.1 µM, first compound 0.316 µM",54.9%
same,"viability, T/C","second compound 0.1 µM, first compound 1 µM",38.6%
same,"viability, T/C",[5],65.1%
same,"viability, T/C",[6],67.8%
same,"viability, T/C",[7],63.9%
same,"viability, T/C",[8],55%
same,"viability, T/C","second compound 0.316 µM, first compound 0.316 µM",50.1%
same,"viability, T/C","second compound 0.316 µM, first compound 1 µM",39.3%
same,"viability, T/C",[9],62.3%
same,"viability, T/C",[10],60.6%
same,"viability, T/C",[11],57%
same,"viability, T/C",[12],57.2%
same,"viability, T/C","second compound 1 µM, first compound 0.316 µM",46.9%
same,"viability, T/C","second compound 1 µM, first compound 1 µM",41.4%
same,"viability, T/C",[13],66.5%
same,"viability, T/C",[14],66.4%
same,"viability, T/C",[15],61.4%
same,"viability, T/C",[16],49%
same,"viability, T/C","second compound 3.16 µM, first compound 0.316 µM",53%
same,"viability, T/C","second compound 3.16 µM, first compound 1 µM",35.3%
same,"viability, T/C",[17],58.6%
same,"viability, T/C",[18],54.6%
same,"viability, T/C",[19],58.5%
same,"viability, T/C",[20],50.3%
same,"viability, T/C","second compound 10 µM, first compound 0.316 µM",46%
same,"viability, T/C","second compound 10 µM, first compound 1 µM",36.8%
Cn1ncnc1C1c2n[nH]c(=O)c3cc(F)cc(c23)NC1c1ccc(F)cc1 (stereo not given) + NC1CCC(NC2CC2c2ccccc2)CC1,IC50,second compound 0.1 µM,> 100 nM
same,IC50,second compound 0.316 µM,> 100 nM
same,IC50,second compound 1 µM,> 100 nM
same,IC50,second compound 3.16 µM,> 100 nM
same,IC50,second compound 10 µM,> 100 nM
same,"viability, T/C","second compound 0.1 µM, first compound 0.000316 µM",97%
same,"viability, T/C","second compound 0.1 µM, first compound 0.001 µM",105%
same,"viability, T/C",[1],92.3%
same,"viability, T/C",[2],91.2%
same,"viability, T/C",[3],94%
same,"viability, T/C",[4],85.4%
same,"viability, T/C","second compound 0.316 µM, first compound 0.000316 µM",100%
same,"viability, T/C","second compound 0.316 µM, first compound 0.001 µM",94.7%
same,"viability, T/C",[5],99.6%
same,"viability, T/C",[6],91.6%
same,"viability, T/C",[7],87.4%
same,"viability, T/C",[8],91.9%
same,"viability, T/C","second compound 1 µM, first compound 0.000316 µM",91%
same,"viability, T/C","second compound 1 µM, first compound 0.001 µM",92.2%
same,"viability, T/C",[9],94.1%
same,"viability, T/C",[10],101%
same,"viability, T/C",[11],80.6%
same,"viability, T/C",[12],92.1%
same,"viability, T/C","second compound 3.16 µM, first compound 0.000316 µM",87.1%
same,"viability, T/C","second compound 3.16 µM, first compound 0.001 µM",87.2%
same,"viability, T/C",[13],89.3%
same,"viability, T/C",[14],79.5%
same,"viability, T/C",[15],84.9%
same,"viability, T/C",[16],80.8%
same,"viability, T/C","second compound 10 µM, first compound 0.000316 µM",73.9%
same,"viability, T/C","second compound 10 µM, first compound 0.001 µM",77.8%
same,"viability, T/C",[17],76.1%
same,"viability, T/C",[18],80.8%
same,"viability, T/C",[19],73.5%
same,"viability, T/C",[20],71.5%
NS(=O)(=O)OCC1CC(n2ccc3c(NC4CCc5ccccc54)ncnc32)CC1O (stereo not given) + NC1CCC(NC2CC2c2ccccc2)CC1,IC50,second compound 0.1 µM,> 3000 nM
same,IC50,second compound 0.316 µM,> 3000 nM
same,IC50,second compound 1 µM,2370 nM
same,IC50,second compound 3.16 µM,1500 nM
same,IC50,second compound 10 µM,545 nM
same,"viability, T/C",[21],117%
same,"viability, T/C",[22],122%
same,"viability, T/C",[23],124%
same,"viability, T/C",[24],91.3%
same,"viability, T/C",[25],86.6%
same,"viability, T/C",[26],58.4%
same,"viability, T/C",[27],119%
same,"viability, T/C",[28],112%
same,"viability, T/C",[29],123%
same,"viability, T/C",[30],99.8%
same,"viability, T/C",[31],85.7%
same,"viability, T/C",[32],50.4%
same,"viability, T/C",[33],99%
same,"viability, T/C",[34],115%
same,"viability, T/C",[35],121%
same,"viability, T/C",[36],92.2%
same,"viability, T/C",[37],74.3%
same,"viability, T/C",[38],43.7%
same,"viability, T/C",[39],103%
same,"viability, T/C",[40],106%
same,"viability, T/C",[41],110%
same,"viability, T/C",[42],84.8%
same,"viability, T/C",[43],65.9%
same,"viability, T/C",[44],28.8%
same,"viability, T/C",[45],86.7%
same,"viability, T/C",[46],86.1%
same,"viability, T/C",[47],83.4%
same,"viability, T/C",[48],62.1%
same,"viability, T/C",[49],37.9%
same,"viability, T/C",[50],15.2%
O=C(C=Cc1cccc(S(=O)(=O)Nc2ccccc2)c1)NO + NC1CCC(NC2CC2c2ccccc2)CC1,IC50,second compound 0.1 µM,108 nM
same,IC50,second compound 0.316 µM,87 nM
same,IC50,second compound 1 µM,76.3 nM
same,IC50,second compound 3.16 µM,92.8 nM
same,IC50,second compound 10 µM,39.6 nM
same,"viability, T/C",[21],85.6%
same,"viability, T/C",[22],78.4%
same,"viability, T/C",[23],51.1%
same,"viability, T/C",[24],26.1%
same,"viability, T/C",[25],1.81%
same,"viability, T/C",[26],0.24%
same,"viability, T/C",[27],87.7%
same,"viability, T/C",[28],74.3%
same,"viability, T/C",[29],42.9%
same,"viability, T/C",[30],31.7%
same,"viability, T/C",[31],3.05%
same,"viability, T/C",[32],0.34%
same,"viability, T/C",[33],97.2%
same,"viability, T/C",[34],65.7%
same,"viability, T/C",[35],50.4%
same,"viability, T/C",[36],24.6%
same,"viability, T/C",[37],2.56%
same,"viability, T/C",[38],0.21%
same,"viability, T/C",[39],77.9%
same,"viability, T/C",[40],73.1%
same,"viability, T/C",[41],47.9%
same,"viability, T/C",[42],22%
same,"viability, T/C",[43],2.44%
same,"viability, T/C",[44],0.16%
same,"viability, T/C",[45],74.2%
same,"viability, T/C",[46],51.7%
same,"viability, T/C",[47],37.6%
same,"viability, T/C",[48],23%
same,"viability, T/C",[49],1.28%
same,"viability, T/C",[50],0.28%
